# Results taken from patent publication US10265276B2, “Pharmaceutical composition for preventing or treating arthritis or inflammatory disease containing 2-methoxy-4-(3-(4-methoxyphenyl)propyl-1-en-1-yl)phenol as active ingredient” (CHUNGBUK NATIONAL UNIVERSITY INDUSTRY-ACADEMIC COOPERATION …, priority 2015, dated 2019).
# Tested on: CAIA-induced C57BL/6 mice
# Assay: Collagen antibody-induced arthritis (CAIA) model
# Type: in vivo, mouse
# Settings: 5 mg/kg, p.o. daily
# Protocol: 14. Induction of rheumatoid arthritis in C57BL/6 mice: To induce rheumatoid arthritis, anti-collagen-II mAbs (CII-Ab, Arthrogen-CIA Arthritogenic Monoclonal Antibody, #53010: Chondrex, Inc., WA, USA) were intraperitoneally (i.p.) injected into 7-week-old male mice on the first day, and 50 μg of LPS was injected on the third day. To evaluate the severity of arthritis, a scoring system was applied according to the criteria.
# 0. No erythema and swelling are observed.
# 1. Slight erythema is observed in tarsals and ankle joints.
# 2. Slight erythema and swelling are observed from an ankle joint to the midfoot.
# 3. Erythema and swelling extending from ankle joints to the metatarsals are observed.
# 4. Erythema and severe swelling were observed throughout the ankles, feet, and fingers.
# The sum of final scores was recorded daily until the sum reached 16. On the 18th day, each of the mice was anesthetized, and then located on a radiographic view box. Thereafter, a location of each of the mice was adjusted so that the mouse was disposed at a distance of 90 cm from an X-ray source. The radioanalysis on hind legs with arthritis was performed by irradiating the hind legs at […] for 0.01 seconds using an X-ray machine (BLD-150RK, Hradec Kralove, Czech Republic).
# 15. Immunohistochemical assay: An immunohistochemical assay was carried out using an avidin-biotin-peroxidase method known in the art. Each of joint tissue samples collected from the mice was fixed with formalin, and embedded in paraffin. These samples were continuously microtomed into sections with a thickness of 4 μm. Each of the sections was stained with haematoxylin/eosin (H&E), anti-COX-2 and anti-iNOS antibodies (Caymen Chemical, Ann Arbor, Mich.).
# Referring to FIG. 10(A), MMPP (5 mg/kg, p.o.) (dissolved in 100 μL of PBS including 0.5 μL of DMSO), a vehicle (a negative control), or indomethacin (5 mg/kg, p.o./dissolved in […] of PBS after the dissolution) was administered daily to 7-week-old male C57BL/6 mice for 18 days.
smiles,measurement,value
"COc1ccc2c(c1)c(CC(=O)O)c(C)n2C(=O)c1ccc(Cl)cc1 [indomethacin, reference compound]",clinical score lower than that of the CAIA group,64.8%
